Source: patent publication US6459001B1 (Aventis Pharma S.A., priority 1997, dated 2002)
Structures can show the parent of a compound that is named as a salt.

Key:
human αvβ3 receptor = human αvβ3 receptor (Homo sapiens, UniProt P05106+P06756); assay: Displacement of the binding Vitronectin/Vitronectin receptor (αvβ3), competition test; details: human vitronectin coated plates, 3 hours at ambient temperature, read-out: Competition test Vn/VR (αvβ3) binding IC50 en
Protocol: 1—Study of the Products of the Invention on the Displacement of the Binding: Vitronectin/Vitronectin Receptor (αvβ3) […]
MaxiSorp 96-well plates are coated overnight at 4° C., with 100 μl of human Vitronectin (cf Yatohgo et al. Cell., Structure and fraction 13: 281-292 (1988)) at 2 μg/ml, (Dilution in coating buffer).
The next day, the wells are emptied and the ligands (Vitronectin) are then fixed (see fixing buffer) for one hour at ambient temperature under gentle agitation.
The wells are washed six times (see washing buffer), then the following are added to each well and in this order:
40 μl of incubation buffer, 10 μl of the dilution of the product to be tested, (the products are diluted in a 50/50 mixture of DMSO-H2O) 50 μl of human αvβ3 receptor (cf Pytela et al. Methods Enzymol (1987) 144:475) (dilution in incubation buffer, to be adapted according to the receptor batch and according to the ligand).
The ligand, the human αvβ3 receptor and the products to be studied are incubated for 3 hours at ambient temperature under gentle agitation.
The wells are again washed six times, then incubated for 2 hours at ambient temperature under gentle agitation, in the presence of 100 μl of anti-receptor, 4B12-HRP antibody coupled to a peroxidase (the 4B12-HRP antibody is diluted in an incubation buffer. The dilution is to be adapted according to the receptor batch).
This kit contains a bottle A of substrate (3,3′,5,5′-tetramethylbenzidine at 0.4 g/l) and a bottle B (H2O2 at 0.02% in a citrate/citric acid buffer). Extemporaneously, a volume of A is mixed with a volume of B, then the reaction mixture is distributed at a rate of 100 μl/well. The enzymatic reaction develops over […] for Vitronectin/αvβ3, then its development is stopped by the addition of 100 μl of 1M phosphoric acid. The optical density is measured at 450 nm. […]
coating buffer: Carbonate 0.05 M, NaOH pH 9.6 fixing buffer: PBS containing 0.5% BSA (pH 7.4) washing buffer: PBS containing 0.05% Tween 20 (pH 7.4)
Expression of the Results:
The following curve is traced: the percentage of binding of the human vitronectin as a function of the logarithm of the concentration of each product tested.
For each product the IC50 is determined according to the following formula:
BO=Maximum binding in the absence of any product
Bmin=Minimum binding in the presence of the highest concentration of product.

[1] = test system: bone resorption (skullcaps of new-born mice); assay: Test of mouse calvarium: bone resorption by release of 45Ca from skullcaps of new-born mice, ex-vivo; details: inhibition of bone resorption (45Ca release) in half-calvaria, 48 hours contact; for inhibition at 10 µM: Mus musculus, read-out: Mouse cavarium % inhibition at 10 μM
From the text: 2—Test of Mouse Calvarium
Injection of a tracer dose of ^45Ca (CaCl2) to gestating female mice in order to study bone resorption by measuring the release of ^45Ca from the skullcaps of new-born mice.
Determination of the activity of a molecule on bone resorption, ex-vivo study.
Vehicle: DMSO, H2O/BSA (0.1%)
Dose: Variable ([…] in screening).
Echistatin (ref. H-9010-BACHEM)
^45Ca in the form of an aqueous solution of CaCl2—ref. CES3 AMERSHAM or NEZ-013 NEN.
Vehicle: Physiological serum
Dose: 25 μCi/mouse/0.4 ml
CMRL 1066 with phenol red (ref. 041-01535 M/GIBCO) supplemented by 0.1% BSA and penicillin/streptomycin.
1) Injection of ^45Ca to Gestating Mice (OF1, Strain: Swiss)
a) Preparation of the Labelled Solution:
190 μl of the mother solution of calcium at 2 mci/ml is added to 6 ml of physiological serum.
On the 17th day of gestation the mice receive 400 μl of this solution by intravenous route, that is 25 μCi/mouse.
2) Removal of the Tissue (Skullcap (Calvarium))
Six days after their birth the new-born mice are decapitated, then the head is recovered, and the skin is incised from the nape to the front. The skullcap is removed by cutting it out with scissors, and using a punch two exactly identical half-calvaria (one on the left and one on the right) are cut from the parietal bones. One will serve as the control, the other will be used to test the product to be studied.
Each half calvarium is placed in a well of a 24-well plate, containing 1 ml of medium, on a 100 μm polyethylene and nylex support, in order to avoid all contact with the bottom of the well.
After 24 hours, the polyethylene supports carrying the calvaria are transferred into new 24-well plates containing 1 ml of fresh medium and the products to be tested or their solvents. 200 μl of medium from the first plates is removed from each well and a first count of the radioactivity is carried out (value A).
This change of medium allows all the mechanical stress associated with the removal to be eliminated.
48 hours after putting the tissues in contact with the studied products, 200 μl of medium is removed from each well and counted (value B), so as to determine the quantity of ^45Ca released from the medium during the so-called resorption phase.
The calvarium is then completely demineralized in 1 ml of 5% trichloracetic acid and after digestion, 200 μl is also removed and counted so as to determine the quantity of calcium remaining in the bone (value C). Expression of the results
A % of bone resorption is calculated for each half-calvarium (each well) in the following manner:
% bone resorption=dpm B/dpm (A+B+C)×100
The sum of dpm A+B+C represents the quantity of ^45Ca incorporated in each bone part on the day of removal.
In order to measure the effect of a product, the ratio of the percentage of bone resorption of the treated well and of the corresponding control well is calculated for each point. The value found called the resorption index is comprised between 0 and 1 if the product inhibits bone resorption and is >1 if the product potentializes it. The average of the 6 indices (since there are 6 points/group) of each product is then calculated which gives one index/product. If this index is subtracted from the value 1, the inhibitory power of the product is obtained, which can be expressed as a percentage.
Furthermore a statistical test (Student T-test) is carried out by comparing point/point the individual resorption indices.

Row | Compound | IC50 (human αvβ3 receptor) [nM] | Mouse cavarium % inhibition at 10 μM [1] [%] | inhibition at 10 µM [1] [%]
1 | 4-((4-(((Amino)iminomethyl)hydrazono)-9,10-dimethoxy-1,2,3,4,5,6-hexahydrobenz(e)azulen-8-yl)oxy)-butanoic Acid [EX. 2] | 450 | 19 | –
2 | 4-((4-(((Amino)iminomethyl)hydrazono)-9,10-dimethoxy-1,2,3,4,5,6-hexahydrobenz(e)azulen-8-yl)oxy)-pentanoic Acid [EX. 3] | 2100 | – | –
3 | COc1c(OCCC(NC(=O)OCc2ccccc2)C(=O)O)cc2c(c1OC)C1=C(CCC1)C(=NNC1=NCCCN1)CC2 (racemic) | 6 | – | 30
4 | COc1c(OCCC(NC(=O)OCc2ccccc2)C(=O)O)cc2c(c1OC)C1=C(CCC1)C(=NNC1=NCCN1)CC2 (racemic) [EX. 24, O-[4-[(4,5-dihydro-1H-imidazol-2-yl)hydrazono)-9,10-dimethoxy-1,2,3,4,5,6-hexahydro-8-benz(e)azulenyl]-N-[(phenylmethoxy)carbonyl]-DL-homoserine] | 30 | – | 18
5 | O=C(NC(CCOc1ccc2c(c1)CCC(=NNC1=NCCN1)C1=C2CCC1)C(=O)O)OCc1ccccc1 (racemic) [EX. 25, O-[4-[(4,5-Dihydro-1H-imidazol-2-yl)hydrazono)-1,2,3,4,5,6-hexahydro-8-benz(e)azulenyl]-N-[(phenylmethoxy)-carbonyl]-DL-homoserine] | 13 | – | 26
6 | COc1c(OCCC(NC(=O)OCc2ccccc2)C(=O)OCC(O)CO)cc2c(c1OC)C1=C(CCC1)C(=NNC1=NCCCN1)CC2 (racemic) [EX. 27, (2,3-Dihydroxypropyl) Ester of O-(9,10-Dimethoxy1,2,3,4,5,6-hexahydro 4-[(1,4,5,6-tetrahydro2-pyrimidinyl)hydrazono]-8-benz(e)azulenyl]N-[(phenylmethoxy)carbonyl]DL-homoserine.] | 170 | 39 | –
7 | COc1c(OCCC(NS(=O)(=O)c2cccc3cccnc23)C(=O)O)cc2c(c1OC)C1=C(CCC1)C(=NNC1=NCCN1)CC2 (racemic) [EX. 28, O-[4-[(4,5-Dihydro1H-imidazol-2-yl)hydrazono]9,10-dimethoxy 1,2,3,4,5,6-hexahydro8-benz(e)azulenyl]N-[(8-quinolinyl)sulphonyl]DL-homoserine] | 15 | – | 27
8 | COc1c(OCCC(NC(=O)OCCCn2cnc(-c3cccnc3)c2)C(=O)O)cc2c(c1OC)C1=C(CCC1)C(=NNC1=NCCN1)CC2 (racemic) [EX. 29, Monohydrochloride of O-[4-[(4,5-Dihydro1H-imidazol-2-yl)hydrazono]9,10-dimethoxy1,2,3,4,5,6-hexahydro8-benz(e)azulenyl]N-[[3-[4-(3-pyridinyl)1H-imidazol-1-yl]propoxy]carbonyl]DL-homoserine] | 28 | – | 18
9 | COc1c(OCCC(NC(=O)OCc2ccccc2)C(=O)O)cc2c(c1OC)C1=C(CCC1)C(=NNC1=NCCCCN1)CC2 (racemic) [EX. 31, O-[9,10-Dimethoxy1,2,3,4,5,6-hexahydro4-[(4,5,6,7-tetrahydro1H-1,3-diazepin-2-yl)hydrazono]8-benz(e)azulenyl]N-[(phenylmethoxy)carbonyl]DL-homoserine] | 55 | – | 20
10 | COc1c(OCCC(NC(=O)OCc2ccccc2)C(=O)O)cc2c(c1OC)C1=C(CCC1)C(=NNC1=NC3CCCCC3N1)CC2 (racemic) [EX. 32, O-[9,10-Dimethoxy1,2,3,4,5,6-hexahydro4-[(3a,4,5,6,7,7a-hexahydro1H-benzimidazol-2-yl)hydrazono]8-benz(e)azulenyl]N-[(phenylmethoxy)carbonyl]DL-homoserine] | 35 | – | –
11 | COc1c(OCCCCC(=O)O)cc2c(c1OC)C1=C(CCC1)C(=NNC1=NCCN1)CC2 [EX. 6, 5-(9,10-dimethoxy-1,2,3,4,5,6-hexahydro-4-(4,5-dihydro-1H-imidazolin-2-yl)hydrazono)-8-benz(e)azulenyl)oxy)-pentanoic Acid] | 110 | – | 7.5
12 | COc1c(OCCCCCC(=O)O)cc2c(c1OC)C1=C(CCC1)C(=NNC1=NCCN1)CC2 [EX. 8, 6-(4((4,5-Dihydro-1H-imidazolin-2-yl)hydrazono)-9,10-dimethoxy-1,2,3,4,5,6-hexahydro-8-benz(e)azulenyl)oxy)-hexanoic Acid] | 2790 | – | –
13 | COc1c(OCC(=O)C(C)(C)CC(=O)O)cc2c(c1OC)C1=C(CCC1)C(=NNC1=NCCN1)CC2 [EX. 10, 5-(4((4,5-Dihydro-1H-imidazolin-2-yl)hydrazono)-9,10-dimethoxy-1,2,3,4,5,6-hexahydro-S-benz(e)azulenyl)oxy)-3,3-dimethyl-4-oxo-pentanoic Acid] | 800 | – | 8
14 | COc1c(OCCCC(=O)O)cc2c(c1OC)C1=C(CCC1)C(=NNC1=NCCN1)CC2 [EX. 11, 4-(4((4,5-Dihydro-1H-imidazolin-2-yl)hydrazono)-9,10-dimethoxy-1,2,3,4,5,6-hexahydro-8-benz(e)azulenyl)oxy)-butanoic Acid] | 50 | – | 7
15 | COc1c(OCCCC(=O)O)cc2c(c1OC)C1=C(CCC1)C(=NNC1=NCCCN1)CC2 [EX. 12, 4-((9,10-Dimethoxy-4-((1,4,5,6-tetrahydro-2-pyrimidinyl)hydrazono)-1,2,3,4,5,6-hexahydro-8-benz(e)-azulenyl)oxy)-butanoic Acid] | 350 | – | 12
16 | O=C(O)CCCOc1ccc2c(c1)CCC(=NNC1=NCCN1)C1=C2CCC1 [EX. 21, 4-(4((4,5-Dihydro-1H-imidazolin-2-yl)hydrazono)-1,2,3,4,5,6-hexahydro-8-benz(e)azulenyl)oxy)-butanoic Acid] | 37 | – | –
17 | N=C(N)NN=C1CCc2cc(OCCCCC(=O)O)c3c(c2C2=C1CCC2)OCO3 [EX. 22, 5-((8-(((Amino)iminomethyl)hydrazono)-6,7,8,9,10,11-hexahydro-azuleno(5,6-d)-1,3-benzodioxol-4-yl)-oxy)-pentanoic Acid] | 2360 | – | –
